Measured values from US9269550B2, “Mass spectrometric methods for quantifying NPY 1-36 and NPY 3-36” (Georgetown University, priority 2010, dated 2016).

Legend:
SK-N-MC cells = assay: Cell viability in SK-N-MC cells; format: cell-based, human
Y1Rs = target: T1, Y1Rs (Homo sapiens, UniProt P25929); conditions: cited from earlier work
T1 sequence (P25929 1-384): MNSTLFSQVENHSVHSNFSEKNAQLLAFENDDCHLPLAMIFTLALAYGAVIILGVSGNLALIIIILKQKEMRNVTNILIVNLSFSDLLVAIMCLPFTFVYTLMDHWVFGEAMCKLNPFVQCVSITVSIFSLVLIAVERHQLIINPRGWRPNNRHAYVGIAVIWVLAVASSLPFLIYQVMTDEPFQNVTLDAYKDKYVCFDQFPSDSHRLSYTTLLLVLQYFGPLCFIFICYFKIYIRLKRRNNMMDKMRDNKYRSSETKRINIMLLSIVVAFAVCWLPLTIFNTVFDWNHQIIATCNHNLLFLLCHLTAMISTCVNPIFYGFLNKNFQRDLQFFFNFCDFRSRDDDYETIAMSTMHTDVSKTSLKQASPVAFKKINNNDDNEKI

Row | Substance | decrease in cell viability (SK-N-MC cells) | activity at Y1Rs (Y1Rs)
1 | NPY 1-36: 36-amino acid peptide neurotransmitter found in the brain and autonomic nervous system | decrease in cell viability was achieved | 
2 | NPY 3-36: 34-amino acid peptide fragment formed by dipeptidyl peptidase IV (DPPIV) cleavage of NPY 1-36 | not | inactive
